Experimental data reported in patent publication US20230295140A1, “INHIBITORS OF VAP-1” (Acucela Inc., priority 2021, published 2023).
Structures can show the parent of a compound that is named as a salt.

Experiments:
Assay type in all cases: biochemical
[1] = target: rhMAO-A (Homo sapiens (Human), UniProt P21397); assay: MAO-Glo assay, MAO-A inhibition
In short: (§1)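 Recombinant human MAO-A or MAO-B with luciferin-derivative substrate (10 μM for MAO-A, […]) in 100 mM HEPES pH 7.5, 5% glycerol, 1 h at room temperature; luminescence read 20 min after detection reagent.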

[2] = target: rhMAO-B (Homo sapiens (Human), UniProt P27338); assay: MAO-Glo assay, MAO-B inhibition
In short: as §1

[3] = target: rhVAP-1 (Homo sapiens (Human), UniProt Q16853); assay: VAP-1 fluorometric assay (Amplex Red/HRP, benzylamine substrate); settings: class symbols, ranges defined in μM
In short: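 Recombinant human VAP-1 oxidizes 50 μM benzylamine in 10 mM NaHCO3 pH 7.4 containing 0.05 mM Amplex Red and 0.5 U HRP, with inhibitor in 0.5% DMSO. After 30 min at 37 °C in the dark, resorufin fluorescence is read […], calibrated against an H2O2 standard curve.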

[4] = class symbols, ranges defined in μM

Chain of rhMAO-B (P27338 whole entry): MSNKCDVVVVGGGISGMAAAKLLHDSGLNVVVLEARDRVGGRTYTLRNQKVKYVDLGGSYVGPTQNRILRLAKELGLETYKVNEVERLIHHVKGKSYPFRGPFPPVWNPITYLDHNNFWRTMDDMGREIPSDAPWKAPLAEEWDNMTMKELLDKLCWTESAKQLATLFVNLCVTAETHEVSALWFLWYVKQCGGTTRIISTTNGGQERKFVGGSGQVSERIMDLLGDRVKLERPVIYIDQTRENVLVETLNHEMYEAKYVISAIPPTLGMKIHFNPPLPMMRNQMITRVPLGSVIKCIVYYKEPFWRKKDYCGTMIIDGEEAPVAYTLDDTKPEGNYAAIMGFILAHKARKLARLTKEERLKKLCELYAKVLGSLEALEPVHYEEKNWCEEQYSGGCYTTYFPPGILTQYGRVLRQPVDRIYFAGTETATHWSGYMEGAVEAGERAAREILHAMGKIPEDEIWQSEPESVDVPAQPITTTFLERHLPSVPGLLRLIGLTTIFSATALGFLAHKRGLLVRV
Chain of rhVAP-1 (Q16853 whole entry): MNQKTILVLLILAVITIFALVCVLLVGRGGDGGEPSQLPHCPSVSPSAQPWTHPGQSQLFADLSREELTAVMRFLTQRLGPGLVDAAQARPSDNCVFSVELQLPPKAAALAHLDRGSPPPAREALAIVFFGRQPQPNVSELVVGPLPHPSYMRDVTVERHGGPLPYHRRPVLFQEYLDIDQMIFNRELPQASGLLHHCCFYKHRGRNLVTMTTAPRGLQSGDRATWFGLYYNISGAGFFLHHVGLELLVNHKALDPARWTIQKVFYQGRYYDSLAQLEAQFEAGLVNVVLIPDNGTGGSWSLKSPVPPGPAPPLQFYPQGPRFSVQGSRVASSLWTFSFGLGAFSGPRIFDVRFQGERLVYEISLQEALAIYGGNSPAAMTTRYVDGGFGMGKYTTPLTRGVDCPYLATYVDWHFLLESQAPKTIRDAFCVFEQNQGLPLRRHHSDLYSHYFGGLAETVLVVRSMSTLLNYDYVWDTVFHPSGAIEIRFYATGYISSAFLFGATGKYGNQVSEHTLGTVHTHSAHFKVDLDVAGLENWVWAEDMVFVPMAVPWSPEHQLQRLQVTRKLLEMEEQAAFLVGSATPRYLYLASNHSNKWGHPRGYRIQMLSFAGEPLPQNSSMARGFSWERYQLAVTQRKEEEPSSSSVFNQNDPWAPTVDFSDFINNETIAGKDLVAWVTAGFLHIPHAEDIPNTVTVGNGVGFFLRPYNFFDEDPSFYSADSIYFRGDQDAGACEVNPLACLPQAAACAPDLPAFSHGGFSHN
Chain of rhMAO-A (P21397 whole entry): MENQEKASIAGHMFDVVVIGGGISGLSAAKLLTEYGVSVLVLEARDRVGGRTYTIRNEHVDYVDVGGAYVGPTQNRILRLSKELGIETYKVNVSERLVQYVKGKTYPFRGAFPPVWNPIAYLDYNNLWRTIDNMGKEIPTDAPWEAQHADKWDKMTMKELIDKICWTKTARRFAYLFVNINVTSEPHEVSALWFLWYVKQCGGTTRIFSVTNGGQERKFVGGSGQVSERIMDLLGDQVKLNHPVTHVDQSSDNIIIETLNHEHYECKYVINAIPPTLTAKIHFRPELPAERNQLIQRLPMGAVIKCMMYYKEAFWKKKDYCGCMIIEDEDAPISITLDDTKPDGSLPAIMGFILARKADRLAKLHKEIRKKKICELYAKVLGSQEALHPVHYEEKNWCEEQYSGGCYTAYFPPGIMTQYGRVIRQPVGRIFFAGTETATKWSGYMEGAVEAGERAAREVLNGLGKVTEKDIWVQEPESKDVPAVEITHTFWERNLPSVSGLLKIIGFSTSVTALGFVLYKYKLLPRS

Molecule	IC50 [1, 4]	IC50 [2, 4]	IC50 [3]	IC50 ([1]; bound printed in cell)	IC50 ([2]; bound printed in cell)
COc1cc(CNc2nc3ccc(OC/C(=C\F)CN)cc3o2)ccn1 [Example 74, (Z)-6-((2-(aminomethyl)-3-fluoroallyl)oxy)-N-((2-methoxypyridin-4-yl)methyl)benzo[d]oxazol-2-amine 4-methylbenzenesulfonate]	1 to 10 µM	1 to 10 µM	< 0.1 µM	–	–
COc1ncccc1CNc1nc2ccc(OC/C(=C\F)CN)cc2o1 [Example 75, (Z)-6-((2-(aminomethyl)-3-fluoroallyl)oxy)-N-((2-methoxypyridin-3-yl)methyl)benzo[d]oxazol-2-amine 4-methylbenzenesulfonate]	–	0.1 to 1 µM	< 0.1 µM	> 50 µM	–
COc1ccc(CNc2nc3ccc(OC/C(=C\F)CN)cc3o2)cn1 [Example 76, (Z)-6-((2-(aminomethyl)-3-fluoroallyl)oxy)-N-((6-methoxypyridin-3-yl)methyl)benzo[d]oxazol-2-amine 4-methylbenzenesulfonate]	1 to 10 µM	1 to 10 µM	< 0.1 µM	–	–
NC/C(=C/F)COc1ccc2nc(N3CCC(O)CC3)oc2c1 [Example 77, (Z)-1-(6-((2-(aminomethyl)-3-fluoro-allyl)oxy)benzo[d]oxazol-2-yl)piperidin-4-ol 4-methylbenzenesulfonate]	1 to 10 µM	–	< 0.1 µM	–	> 50 µM
NC/C(=C/F)COc1ccc2nc(NC3CCC(O)CC3)oc2c1 (stereo not drawn) [Example 78, (Z)-4-((6-((2-(aminomethyl)-3-fluoroallyl)oxy)benzo[d]oxazol-2-yl)amino)cyclohexan-1-ol 4-methylbenzenesulfonate]	–	1 to 10 µM	< 0.1 µM	> 50 µM	–
CNC(=O)[C@@H](Cc1ccccc1)Nc1nc2ccc(OC/C(=C\F)CN)cc2o1 [Example 80, (R,Z)-2-((6-((2-(aminomethyl)-3-fluoroallyl)oxy)benzo[d]oxazol-2-yl)amino)-N-methyl-3-phenylpropanamide 4-methylbenzenesulfonate]	–	–	< 0.1 µM	> 40 µM	> 40 µM
COCCCNc1nc2ccc(OC/C(=C\F)CN)cc2o1 [Example 81, (Z)-6-((2-(aminomethyl)-3-fluoroallyl)oxy)-N-(3-methoxypropyl)benzo[d]oxazol-2-amine 4-methylbenzenesulfonate]	1 to 10 µM	1 to 10 µM	< 0.1 µM	–	–
CCCCc1nc2c(F)cc(OC/C(=C/F)CN)cc2o1 [Example 82, (E)-2-(((2-butyl-4-fluorobenzo[d]-oxazol-6-yl)oxy)methyl)-3-fluoroprop-2-en-1-amine 4-methylbenzenesulfonate]	1 to 10 µM	< 0.1 µM	< 0.1 µM	–	–
NC/C(=C/F)COc1ccc2nc(NCc3ccc(C(F)(F)F)nc3)oc2c1 [Example 83, (Z)-6-((2-(aminomethyl)-3-fluoroallyl)oxy)-N-((6-(trifluoromethyl)pyridin-3-yl)methyl)benzo[d]oxazol-2-amine 4-methylbenzenesulfonate]	10 to 30 µM	1 to 10 µM	< 0.1 µM	–	–
NC/C(=C\F)COc1ccc2nc(NCc3ccc(C(F)(F)F)nc3)oc2c1 [Example 84, (E)-6-((2-(aminomethyl)-3-fluoroallyl)oxy)-N-((6-(trifluoromethyl)pyridin-3-yl)methyl)benzo[d]oxazol-2-amine 4-methylbenzenesulfonate]	–	1 to 10 µM	< 0.1 µM	> 40 µM	–
NC/C(=C\F)COc1ccc2nc(N3CCC(O)C3)oc2c1 (stereo not drawn) [Example 85, (E)-1-(6-((2-(aminomethyl)-3-fluoroallyl)oxy)benzo[d]oxazol-2-yl)pyrrolidin-3-ol 4-methylbenzenesulfonate]	1 to 10 µM	1 to 10 µM	< 0.1 µM	–	–
CC1CN(c2nc3ccc(OC/C(=C/F)CN)cc3o2)C(C)(C)C1 (stereo not drawn) [Example 86, (E)-3-fluoro-2-(((2-(2,2,4-trimethylpyrrolidin-1-yl)benzo[d]oxazol-6-yl)oxy)methyl)prop-2-en-1-amine 4-methylbenzenesulfonate]	–	1 to 10 µM	< 0.1 µM	> 50 µM	–
NC/C(=C\F)COc1ccc2nc(NC3CCC(O)C3)oc2c1 (stereo not drawn) [Example 87, (E)-3-((6-((2-(aminomethyl)-3-fluoroallyl)oxy)benzo[d]oxazol-2-yl)amino)cyclopentan-1-ol 4-methylbenzenesulfonate]	1 to 10 µM	1 to 10 µM	< 0.1 µM	–	–
NC/C(=C\F)COc1ccc2nc(NCCCO)sc2c1 [Example 88, (E)-3-((6-((2-(aminomethyl)-3-fluoroallyl)oxy)benzo[d]thiazol-2-yl)amino)propan-1-ol 4-methylbenzenesulfonate]	1 to 10 µM	1 to 10 µM	< 0.1 µM	–	–
CCCCn1cnc2cc(OC/C(=C/F)CN)ccc21 [Example 89, (E)-2-(((1-butyl-1H-benzo[d]imidazol-5-yl)oxy)methyl)-3-fluoroprop-2-en-1-amine 4-methylbenzenesulfonate]	–	1 to 10 µM	< 0.1 µM	> 50 µM	–
NC/C(=C\F)COc1ccc2nc(N3CCS(=O)(=O)CC3)oc2c1 [Example 90, (E)-4-(6-((2-(aminomethyl)-3-fluoroallyl)oxy)benzo[d]oxazol-2-yl)thiomorpholine 1,1-dioxide 4-methylbenzenesulfonate]	–	1 to 10 µM	< 0.1 µM	> 50 µM	–
Cc1cc(CNc2nc3ccc(OC/C(=C/F)CN)cc3o2)cc(C)n1 [Example 91, (E)-6-((2-(Aminomethyl)-3-fluoroallyl)oxy)-N-((2,6-dimethylpyridin-4-yl)methyl)benzo[d]oxazol-2-amine trihydrochloride]	–	1 to 10 µM	< 0.1 µM	> 50 µM	–
C=C(CN)c1ccc2nc(CCCC)oc2c1 [Example 92, 2-(2-butylbenzo[d]oxazol-6-yl)prop-2-en-1-amine]	< 0.1 µM	< 0.1 µM	0.1 to 1 µM	–	–
NC/C(=C/F)COc1ccc2nc(NCCC(Cl)CCO)oc2c1 (stereo not drawn) [Example 93, (Z)-5-((6-((2-(aminomethyl)-3-fluoroallyl)oxy)benzo[d]oxazol-2-yl)amino)-3-chloropentan-1-ol 4-methylbenzenesulfonate]	1 to 10 µM	1 to 10 µM	< 0.1 µM	–	–
NC/C(=C/F)COc1ccc2nc(NCc3ccncc3)oc2c1 [Example 94, (Z)-6-((2-(aminomethyl)-3-fluoroallyl)oxy)-N-(pyridin-4-ylmethyl)benzo[d]oxazol-2-amine 4-methylbenzenesulfonate]	–	0.1 to 1 µM	< 0.1 µM	> 50 µM	–
(Z)-2-((6-((2-(aminomethyl)-3-fluoroallyl)oxy)benzo[d]oxazol-2-yl)amino)-N-methylacetamide (4-methylbenzenesulfonate) [Example 63]	–	–	< 0.1 µM	> 40 µM	> 40 µM
